PubChem BioAssay (NCI)
“And” between values parts separate entries of the source, which are not always exact repeats. Equal entries are not always repeated.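 Briefly, cells in 96-well plates were exposed to five compound concentrations for 48 h, and endpoints were estimated by linear interpolation. Abbreviation: GI50, concentration required for 50% inhibition of growth. At the TGI there is no net growth.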

test system: MDA-MB-468 breast; test: DTP human tumour cell line panel, 48 h

Row | Structure (SMILES) | GI50 | TGI
1 | CCN(CC)CCCN1C(=O)c2c(c(C)c3c(oc4ccc(O)cc43)c2C)C1=O | 1.65 µM | 3.72 µM
2 | COc1ccc(-c2cnoc2-c2ccc(OC)cc2O)cc1 | 0.844 µM | 5.46 µM
3 | O=C(C(Br)C(Br)c1ccccc1)C(Br)C(Br)c1ccccc1 (stereo not given) | 1.04 µM | 3.09 µM
4 | CCCCN(CCCC)CC(O)c1ccc(OCc2ccccc2)c2ccccc12 (stereo not given) | 2.17 µM | 6 µM
5 | CCSc1ccc2c(c1)N(CCCN1CCN(C)CC1)c1ccccc1S2 | 1.73 µM | 3.38 µM
6 | NS(=O)(=O)c1ccc(Nc2ncc(-c3ccccc3)o2)cc1 | > 25 µM | > 25 µM
7 | C=CCOC1=CC(=O)c2ccccc2C1=O | 2.08 µM | 5.14 µM
8 | Cc1nn(-c2ccccc2)c(-n2ccnc2)c1/C=N/Nc1nc(-c2ccc(Cl)c(Cl)c2)cs1 | 1.47 µM | 7.92 µM
9 | CN(C)c1ccc(O)c2c1CC1CC3C(N(C)C)C(=O)C(C(N)=O)=C(O)C3(O)C(=O)C1=C2O (stereo not given) | 11 µM | 57.7 µM
10 | COc1cc(-c2cc(/C=C3\C(=O)Nc4ccc(Cl)cc43)[nH]n2)cc(OC)c1OC | 5.23 µM | 88.8 µM
11 | CCCCC/C=C/C(=O)CCc1ccc(O)c(OC)c1 | 3.18 µM | 13 µM
12 | COc1ccc(-c2cc3c(OC)c(OC)c(OC)cc3oc2=O)cc1 | 2.21 µM | 8.46 µM
13 | O=NNc1ccc(S(=O)c2ccccc2)cn1 (stereo not given) | 76.2 µM | > 100 µM
14 | COc1cccc(-n2ncc3c(N/N=C/c4ccc(F)cc4)ncnc32)c1 | > 25 µM | > 25 µM
15 | COC(=O)c1c2c(c(C)[n+]([O-])c1C)C(=O)C(NCc1cccc(Cl)c1)=CC2=O | 0.896 µM | 2.5 µM
16 | C=C(C)[C@@H]1CC[C@]2(COC(C)=O)CC[C@]3(C)[C@H](CC[C@@H]4[C@@]5(C)CCCN(C(C)=O)C(C)(C)[C@@H]5CC[C@]43C)[C@@H]12 | 1.53 µM | 3 µM
17 | Oc1ccc(/C=C/c2ccc(O)cc2)cc1 | 10.7 µM | > 100 µM
18 | O=c1ccc(N=Nc2ccccc2)ccc1Cl | 2.46 µM | 10.8 µM
19 | Cc1nnc([S-])o1.[Au+].c1ccc([PH+](c2ccccc2)c2ccccc2)cc1 | 1.38 µM | 2.8 µM
20 | CCN(CCCNC(=O)Cc1cc(=O)oc2cc(N(C)C)ccc12)CCNc1ccnc2cc(Cl)ccc12 | 1.96 µM | 6 µM
21 | CN1CCN(Cc2ccc(NC(=O)c3cncc(C#Cc4cnc5ccc(OCC6(C)COC6)nn45)c3)cc2C(F)(F)F)CC1 | 0.12 µM | 0.36 µM
22 | CO[C@@H](C(=O)N1Cc2[nH]nc(NC(=O)c3ccc(N4CCN(C)CC4)cc3)c2C1)c1ccccc1 | 0.585 µM and 0.13 µM | 5.28 µM and > 10 µM
23 | Nc1nc2cc(-c3ccc4ncc(C(=O)N5CCOCC5)n4c3)ccc2o1 | 3.82 µM | 45.5 µM
24 | COC(=O)[C@@H]1CCCN1C(=O)[C@@H]1CCCN1C(=O)[C@H](Cc1ccccc1)NC(=S)Nc1cc(C(F)(F)F)cc(C(F)(F)F)c1 | 2.48 µM | 9.62 µM
25 | COC(=O)c1cc2cc(-c3ccc(OC)cc3)cnc2[nH]1 | 0.744 µM | –
26 | COc1cc(-c2cncn2-c2ccc(-c3nc4ccc(F)cc4s3)cc2)ccc1F | 11.1 µM | > 100 µM
27 | Cc1ccc(NS(=O)(=O)c2ccc(-c3cnc(C4CC4)o3)cc2)cc1C | 0.231 µM | 2.33 µM

Row | Structure (SMILES) | GI50 | TGI
28 | CCCCCCCCCCCCCCCCNC(=O)OC(C)C | 4.01 µM | 10.1 µM
29 | CCC(CC)COC(=O)[C@H](C)N[P@](=O)(OC[C@H]1O[C@@](C#N)(c2ccc3c(N)ncnn23)[C@H](O)[C@@H]1O)Oc1ccccc1 | 0.491 µM | 3.83 µM
30 | COc1ccc(CN2CCc3c(Sc4ccccc4)nc(N)nc3C2=O)c(OC)c1 | 3.51 µM | 14 µM
31 | C/C=C(/C(=C/C)c1ccc(O)cc1)c1ccc(O)cc1 | 2 µM | 6.85 µM
32 | CN1CCN(Cc2ccc(NC(=O)c3cnc(F)c(C#Cc4cnc(N)c5ncccc45)c3)cc2C(F)(F)F)CC1 | 0.386 µM | 7.68 µM
33 | CN1CCN(Cc2ccc(NC(=O)c3nc4ccc5[nH]ncc5c4c4c3CCCC4)cc2C(F)(F)F)CC1 | 0.797 µM | 1.6 µM
34 | N=C1N(c2ccccc2)C(=S)C(=Nc2ccccc2)N1c1ccccc1 | 7.14 µM | 20.8 µM
35 | C=C1C(=O)O[C@H]2[C@H]1CC/C(COC(=O)NCc1[nH]nc3ccccc13)=C\CC[C@@]1(C)O[C@@H]21 | 0.736 µM | 2.72 µM
36 | O=C1c2ccc3c4c(ccc(c24)C(=O)N1CCCNCc1ccccc1F)C(=O)N(CCCNCc1ccccc1F)C3=O | 0.143 µM | 0.29 µM
37 | CCCCSSC(=S)N(CC)CC | 65.1 µM | > 100 µM
38 | Cn1cc(C2=C(c3cn(C)c4cc(C(=O)O)ccc34)C(=O)NC2=O)c2ccccc21 | > 25 µM | > 25 µM
39 | CC(C)(Oc1ccc(Cl)cc1)C(=O)NC1C2CC3CC1CC(NS(C)(=O)=O)(C3)C2 (stereo not given) | > 100 µM | > 100 µM
40 | O=[N+]([O-])c1cc([N+](=O)[O-])c(N2CCCC2)cc1NN=C(c1ccc(O)cc1)c1ccc(O)cc1 | 2.18 µM | 10.1 µM
41 | O=C(Nc1cccc(-n2cc(-c3ccncc3)c(-c3ccc(Cl)c(O)c3)n2)c1)Nc1cccc(C(F)(F)F)c1 | 0.98 µM | 7.83 µM
42 | CCNC(=O)N1CCc2cc(OC)c(OCCc3ccc(OC)nc3)cc2C1c1ccc(C)cc1C (stereo not given) | 1.59 µM | 7.58 µM
43 | CC(C)(C)CC(C)(C)c1ccc(OCCSC(=N)N)cc1 | 0.358 µM | 1.9 µM
44 | CNC1CCc2c(sc(NC(=O)c3ccc(C(C)(C)C)cc3)c2C(N)=O)C1 (stereo not given) | 1.84 µM | 3.58 µM
45 | CN(CCO)C1CCN(c2ccc(Nc3ncc4c5ccnc(F)c5n(C5CCCC5)c4n3)nc2)CC1 | 15.4 µM | 33.2 µM
46 | CCOC(=O)c1ccc(NC(=O)Nc2nccs2)cc1 | 0.0467 µM | > 100 µM
47 | NS(=O)(=O)N(c1cc(C(F)(F)F)cc(C(F)(F)F)c1)C1CCN(Cc2ccc(C(F)(F)F)cc2)CC1 | 5.65 µM | 12 µM
48 | CCC(/C=C(C)/C=C/C(=O)c1c(O)c(-c2ccc(O)cc2)c[nH]c1=O)CO (stereo not given) | 5.24 µM | 24.4 µM
49 | CSc1nn2c(-c3ccc4ccccc4c3)ccnc2c1C#N | 2.87 µM | 18.3 µM
50 | COc1ccc(/C=C2\CS(=O)(=O)C/C(=C\c3ccc(OC)cc3)C2=O)cc1 | 1.59 µM | 5.18 µM
51 | Cc1ccc2c(NCCCN(C)C)c3c(C)nn(C)c3nc2c1 | 2.71 µM | 10.2 µM
52 | C=C1C(=O)O[C@H]2[C@H]1CC/C(COC(=O)NCc1ccc(Cn3c(=O)sn(CCI)c3=O)cc1)=C\CC[C@@]1(C)O[C@@H]21 | 1.25 µM | 2.81 µM
53 | Nc1[nH]c(=O)nc2c1cnn2Cc1ccccc1 | > 100 µM | > 100 µM
